Source: PubChem BioAssay AID248 (DTP/NCI, 2004)
Where “and” joins values, the source holds several entries; their conditions need not be identical. Identical values can stand only once. Inconclusive results and toxic doses are left out. Rule as the data show it: active = T/C of 150% or more; inactive = T/C below 125%.

System: L1210 leukemia ip in BDF1 mice, survival T/C
Test: NCI In Vivo Anticancer Drug Screen. Data for tumor model L1210 Leukemia (intraperitoneal) in B6D2F1 (BDF1) mice
Conditions: higher = longer survival
Summary of the method: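 Transplantable tumor model; survival measured in treated vs vehicle control mice. Value = treated/control.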

[1] = endpoint: mean survival time, dose: 12.5 mg/kg/injection, schedule: Q01DX009 (ip), vehicle: saline

Measured: T/C

CC(=O)C=O
inactive: [1] 98 % of control | endpoint: mean survival time, dose: 20.5 mg/kg/injection, schedule: Q01DX006 (ip), vehicle: saline 100 % of control | endpoint: mean survival time, dose: 20.5 mg/kg/injection, schedule: Q ##X009 (ip), vehicle: saline 102 % of control | endpoint: mean survival time, dose: 20.5 mg/kg/injection, schedule: Q## X Z (ip), vehicle: saline 101 % of control | endpoint: mean survival time, dose: 25.0 mg/kg/injection, schedule: Q01DX009 (ip), vehicle: saline 88 % of control | endpoint: mean survival time, dose: 29.5 mg/kg/injection, schedule: Q01DX006 (ip), vehicle: saline 105 % of control | endpoint: mean survival time, dose: 29.5 mg/kg/injection, schedule: Q ##X009 (ip), vehicle: saline 98 % of control | endpoint: mean survival time, dose: 29.5 mg/kg/injection, schedule: Q## X Z (ip), vehicle: saline 97 % of control | endpoint: mean survival time, dose: 41.0 mg/kg/injection, schedule: Q03DX002 (ip), vehicle: saline 107 % of control | endpoint: mean survival time, dose: 42.0 mg/kg/injection, schedule: Q01DX006 (ip), vehicle: saline 96 % of control | endpoint: mean survival time, dose: 42.0 mg/kg/injection, schedule: Q ##X009 (ip), vehicle: saline 110 % of control | endpoint: mean survival time, dose: 42.0 mg/kg/injection, schedule: Q## X Z (ip), vehicle: saline 110 % of control | endpoint: mean survival time, dose: 50.0 mg/kg/injection, schedule: Q01DX009 (ip), vehicle: saline 93 % of control | endpoint: mean survival time, dose: 50.0 mg/kg/injection, schedule: Q01DX009 (ip), vehicle: water 110 % of control | endpoint: mean survival time, dose: 60.0 mg/kg/injection, schedule: Q01DX006 (ip), vehicle: saline 106 % of control and 107 % of control | endpoint: mean survival time, dose: 60.0 mg/kg/injection, schedule: Q ##X009 (ip), vehicle: saline 91 % of control | endpoint: mean survival time, dose: 60.0 mg/kg/injection, schedule: Q## X Z (ip), vehicle: saline 91 % of control | endpoint: mean survival time, dose: 71.0 mg/kg/injection, schedule: Q03DX002 (ip), vehicle: saline 118 % of control | endpoint: mean survival time, dose: 75.0 mg/kg/injection, schedule: Q01DX009 (ip), vehicle: water 113 % of control | endpoint: mean survival time, dose: 93.0 mg/kg/injection, schedule: Q01DX001 (ip), vehicle: saline 113 % of control | endpoint: mean survival time, dose: 100.0 mg/kg/injection, schedule: Q01DX009 (ip), vehicle: saline 97 % of control | endpoint: mean survival time, dose: 100.0 mg/kg/injection, schedule: Q01DX009 (ip), vehicle: water 110 % of control | endpoint: mean survival time, dose: 107.0 mg/kg/injection, schedule: Q03DX002 (ip), vehicle: saline 116 % of control | endpoint: mean survival time, dose: 127.0 mg/kg/injection, schedule: Q01DX001 (ip), vehicle: saline 123 % of control | endpoint: mean survival time, dose: 150.0 mg/kg/injection, schedule: Q01DX009 (ip), vehicle: water 103 % of control | endpoint: mean survival time, dose: 160.0 mg/kg/injection, schedule: Q03DX002 (ip), vehicle: saline 111 % of control | endpoint: mean survival time, dose: 200.0 mg/kg/injection, schedule: Q01DX001 (ip), vehicle: saline 97 % of control | endpoint: mean survival time, dose: 200.0 mg/kg/injection, schedule: Q01DX009 (ip), vehicle: saline 104 % of control | endpoint: mean survival time, dose: 200.0 mg/kg/injection, schedule: Q01DX009 (ip), vehicle: water 91 % of control | endpoint: mean survival time, dose: 400.0 mg/kg/injection, schedule: Q01DX009 (ip), vehicle: saline 111 % of control | endpoint: median survival time, dose: 35.0 mg/kg/injection, schedule: Q01DX005 (ip), vehicle: other 104 % of control | endpoint: median survival time, dose: 35.0 mg/kg/injection, schedule: Q01DX005 (ip), vehicle: saline sonified 105 % of control | endpoint: median survival time, dose: 44.0 mg/kg/injection, schedule: Q01DX005 (ip), vehicle: other 104 % of control | endpoint: median survival time, dose: 44.0 mg/kg/injection, schedule: Q01DX005 (ip), vehicle: saline sonified 105 % of control | endpoint: median survival time, dose: 55.0 mg/kg/injection, schedule: Q01DX005 (ip), vehicle: other 106 % of control | endpoint: median survival time, dose: 55.0 mg/kg/injection, schedule: Q01DX005 (ip), vehicle: saline sonified 111 % of control | endpoint: median survival time, dose: 69.0 mg/kg/injection, schedule: Q01DX005 (ip), vehicle: other 107 % of control | endpoint: median survival time, dose: 69.0 mg/kg/injection, schedule: Q01DX005 (ip), vehicle: saline sonified 111 % of control | endpoint: median survival time, dose: 86.0 mg/kg/injection, schedule: Q01DX005 (ip), vehicle: other 110 % of control | endpoint: median survival time, dose: 86.0 mg/kg/injection, schedule: Q01DX005 (ip), vehicle: saline sonified 111 % of control | endpoint: median survival time, dose: 175.0 mg/kg/injection, schedule: Q01DX001 (ip), vehicle: other 101 % of control | endpoint: median survival time, dose: 175.0 mg/kg/injection, schedule: Q01DX001 (ip), vehicle: saline sonified 100 % of control | endpoint: median survival time, dose: 194.0 mg/kg/injection, schedule: Q01DX001 (ip), vehicle: other 101 % of control | endpoint: median survival time, dose: 194.0 mg/kg/injection, schedule: Q01DX001 (ip), vehicle: saline sonified 100 % of control | endpoint: median survival time, dose: 216.0 mg/kg/injection, schedule: Q01DX001 (ip), vehicle: other 98 % of control | endpoint: median survival time, dose: 216.0 mg/kg/injection, schedule: Q01DX001 (ip), vehicle: saline sonified 100 % of control | endpoint: median survival time, dose: 240.0 mg/kg/injection, schedule: Q01DX001 (ip), vehicle: other 118 % of control | endpoint: median survival time, dose: 240.0 mg/kg/injection, schedule: Q01DX001 (ip), vehicle: saline sonified 116 % of control | endpoint: median survival time, dose: 268.0 mg/kg/injection, schedule: Q01DX001 (ip), vehicle: other 107 % of control | endpoint: median survival time, dose: 268.0 mg/kg/injection, schedule: Q01DX001 (ip), vehicle: saline sonified 105 % of control | endpoint: median survival time, dose: 298.0 mg/kg/injection, schedule: Q01DX001 (ip), vehicle: other 116 % of control | endpoint: median survival time, dose: 298.0 mg/kg/injection, schedule: Q01DX001 (ip), vehicle: saline sonified 116 % of control

O=c1[nH]cc(CSC(=S)Nc2ccc(Cl)c(Cl)c2)c(=O)[nH]1
inactive: endpoint: mean survival time, dose: 15.0 mg/kg/injection, schedule: Q04DX003 (ip), vehicle: saline with Tween-80 104 % of control | endpoint: mean survival time, dose: 30.0 mg/kg/injection, schedule: Q04DX003 (ip), vehicle: saline with Tween-80 101 % of control | endpoint: mean survival time, dose: 60.0 mg/kg/injection, schedule: Q04DX003 (ip), vehicle: saline with Tween-80 104 % of control

Cc1cccc(NC(=O)COc2cc(Cl)c(Cl)cc2Cl)c1C
inactive: endpoint: mean survival time, dose: 100.0 mg/kg/injection, schedule: Q01DX009 (ip), vehicle: Klucel (hydroxypropylcellulose) (HPC) 98 % of control | endpoint: mean survival time, dose: 200.0 mg/kg/injection, schedule: Q01DX009 (ip), vehicle: Klucel (hydroxypropylcellulose) (HPC) 93 % of control | endpoint: mean survival time, dose: 400.0 mg/kg/injection, schedule: Q01DX009 (ip), vehicle: Klucel (hydroxypropylcellulose) (HPC) 101 % of control

Nc1cc(S(N)(=O)=O)ccc1N1CCCC1
inactive: endpoint: mean survival time, dose: 100.0 mg/kg/injection, schedule: Q04DX003 (ip), vehicle: saline with Tween-80 96 % of control | endpoint: mean survival time, dose: 200.0 mg/kg/injection, schedule: Q04DX003 (ip), vehicle: saline with Tween-80 91 % of control | endpoint: mean survival time, dose: 400.0 mg/kg/injection, schedule: Q04DX003 (ip), vehicle: saline with Tween-80 102 % of control

C1CN2CCN1CC2.[Cl][Ni+][Cl]
inactive: endpoint: mean survival time, dose: 1.56 mg/kg/injection, schedule: Q01DX009 (ip), vehicle: saline 101 % of control | endpoint: mean survival time, dose: 2.0 mg/kg/injection, schedule: Q04DX003 (ip), vehicle: saline 109 % of control | endpoint: mean survival time, dose: 3.12 mg/kg/injection, schedule: Q01DX009 (ip), vehicle: saline 101 % of control | endpoint: mean survival time, dose: 4.0 mg/kg/injection, schedule: Q04DX003 (ip), vehicle: saline 106 % of control | endpoint: mean survival time, dose: 6.25 mg/kg/injection, schedule: Q01DX009 (ip), vehicle: saline 94 % of control | endpoint: mean survival time, dose: 8.0 mg/kg/injection, schedule: Q04DX003 (ip), vehicle: saline 97 % of control | [1] 92 % of control | endpoint: mean survival time, dose: 16.0 mg/kg/injection, schedule: Q04DX003 (ip), vehicle: saline 105 % of control

O=C1C=CC(=O)C2C3c4ccccc4C(c4ccccc43)C12 (stereo not drawn)
inactive: endpoint: mean survival time, dose: 100.0 mg/kg/injection, schedule: Q01DX001 (ip), vehicle: saline with Tween-80 93 % of control | endpoint: mean survival time, dose: 100.0 mg/kg/injection, schedule: Q04DX002 (ip), vehicle: saline 93 % of control | endpoint: mean survival time, dose: 200.0 mg/kg/injection, schedule: Q01DX001 (ip), vehicle: saline with Tween-80 108 % of control | endpoint: mean survival time, dose: 200.0 mg/kg/injection, schedule: Q04DX002 (ip), vehicle: saline 101 % of control | endpoint: mean survival time, dose: 400.0 mg/kg/injection, schedule: Q01DX001 (ip), vehicle: saline with Tween-80 100 % of control | endpoint: mean survival time, dose: 400.0 mg/kg/injection, schedule: Q04DX002 (ip), vehicle: saline 90 % of control

O=C(Nc1cccc2ccccc12)Nc1cccc2ccccc12
inactive: endpoint: mean survival time, dose: 100.0 mg/kg/injection, schedule: Q01DX001 (ip), vehicle: carboxymethylcellulose (CMC) 95 % of control | endpoint: mean survival time, dose: 200.0 mg/kg/injection, schedule: Q01DX001 (ip), vehicle: carboxymethylcellulose (CMC) 90 % of control | endpoint: mean survival time, dose: 400.0 mg/kg/injection, schedule: Q01DX001 (ip), vehicle: carboxymethylcellulose (CMC) 92 % of control
